Measured values published in patent EP4818172A1, “ASCORBIC ACID DERIVATIVES AND COSMETIC CONTAINING SAME” (Seiwa Kasei Co., Ltd., priority 2023, dated 2025).

Tests used:
[1] = test system: Normal human epidermal keratinocytes; test: Antioxidant effect: ROS production inhibition after H2O2 (DCFHDA probe); type: cell-based; conditions: sample at 10 mM or less, 24 hours, then 0.2 mM H2O2 for 2 hours, N=4
Protocol: Normal human epidermal keratinocytes were seeded onto a 96-well plate using KG2 medium at a cell density of 2.0 × 10^4 cells/well. After 24 hours of pre-incubation, samples adjusted to a predetermined concentration in KG2 medium were added to each well. After 24 hours of incubation, the medium was removed, followed by washing with HBSS(-) and the incorporation of the ROS-reactive fluorescent probe DCFHDA for 30 minutes. The cells were again washed with HBSS(-), treated with 0.2 mM H2O2, and incubated for 2 hours. The fluorescence intensity was measured, and the amount of ROS produced per unit protein was calculated by dividing the fluorescence intensity by the amount of protein quantified by the BCA method, resulting in an analytical value of 1. Furthermore, the amount of ROS production calculated without adding the sample adjusted to a predetermined concentration using the above test method was set to analytical value 2; and the amount of ROS production calculated without adding the sample or 0.2 mM H2O2 was set to analytical value 3.
ROS production inhibition rate (%) was calculated using the following formula. The higher the ROS production inhibition rate, the greater the antioxidant effect can be evaluated to be.
ROS production inhibition rate (%) = [(analysis value 2) - (analysis value 1)] / [(analysis value 2) - (analysis value 3)] × 100
The ROS production inhibition rate when the sample was measured at a concentration of 10 mM or less was evaluated as follows. Note that the measurement was performed in N=4. • <20%: + • 20-40%: ++ • 40%<: +++ [Table 21]

[2] = test system: Normal human dermal fibroblasts; test: Collagen production promoting effect (ELISA of free collagen in supernatant); type: cell-based; conditions: sample at 10 mM or less, cultured 48 hours, % of control group (100%), N=3
[3] = test system: Normal human dermal fibroblasts (NHDF); test: Hyaluronic acid production promoting effect (ELISA of supernatant); type: cell-based; conditions: sample at 10 mM or less in serum-free D-MEM, cultured 48 hours, % of control group (100%), N=3
Procedure, shortened: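 NHDF pre-incubated 24 h in D-MEM/5% FBS, then exposed to samples (10 mM or less) in serum-free D-MEM for 48 h. Supernatant hyaluronic acid measured by ELISA, triplicate. Output expressed as % of untreated control (control = 100%), graded ±/+/++ at <100%, 100-120%, >120%.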

[4] = Stability test -2: odor and coloration of cream stored at 50°C; type: physicochemical; conditions: Test Example 2, cream stored at 50°C, total score of 10 panelists
Procedure, shortened: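 Creams at pH 7 or 9 containing the test samples stored at 50°C for 4 weeks. Odor and coloration scored by 10 panelists against the freshly prepared cream; total scores classed as ○ (25 or more), △ (16-24) or × (15 or less).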

[5] = Stability test -2: residual rate in cream of pH 7 or 9 stored at 50°C; type: physicochemical; conditions: cream with 4.0 W/W% derivative
Procedure, shortened: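 Each derivative was formulated into a cream by heating and mixing two component phases, cooling, then adding a third component, giving a final pH of 7 or 9. The creams were kept at 50°C for up to 4 weeks, and the remaining amount of derivative was measured to give a residual rate.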

Compound | Antioxidant effect (ROS production inhibition rate) [1] | Collagen production-promoting effect [2] | Hyaluronic acid production-promoting effect [3] | Coloration After 2 weeks [4] | Odor After 2 weeks [4] | Coloration After 4 weeks [4] | Odor After 4 weeks [4] | Residual Rate After 2 weeks ([5]; pH7, stored at 50°C) | Residual Rate After 4 weeks ([5]; pH7, stored at 50°C) | Residual Rate After 2 weeks ([5]; pH9, stored at 50°C) | Residual Rate After 4 weeks ([5]; pH9, stored at 50°C)
O=C1O[C@H]([C@@H](O)CO)C(OCC(O)CO)=C1O (stereo partly drawn) [3-O-glyceryl ascorbic acid, reference compound] | + (<20%) | + (100-140%) |  |  |  |  |  |  |  |  | 
CCCC(=O)OCC(O)C1OC(=O)C2=C1OCCCCO2 (stereo not drawn) [synthesis example 9, 6-O-butanoyl-2,3-O-(1,4-butanediyl) ascorbic acid] | ++ (20-40%) | + (100-140%) | ++ (120%<) | ○ (Total score of 10 panelists is 25 or more) | ○ (Total score of 10 panelists is 25 or more) | ○ (Total score of 10 panelists is 25 or more) | Δ | ⊚ (95% or more) | ⊚ (95% or more) | ⊚ (95% or more) | ⊚ (95% or more)
CCCC(=O)OCC(OC(=O)CCC)C1OC(=O)C2=C1OCCCCO2 (stereo not drawn) [synthesis example 10, 5,6-O-dibutanoyl-2,3-O-(1,4-butanediyl) ascorbic acid] | + (<20%) | ++ (140%<) | ++ (120%<) | ○ (Total score of 10 panelists is 25 or more) | ○ (Total score of 10 panelists is 25 or more) | ○ (Total score of 10 panelists is 25 or more) | Δ | ⊚ (95% or more) | ⊚ (95% or more) | ⊚ (95% or more) | ⊚ (95% or more)
CC(C)CCCCCCCCCCCCCCC(=O)OC[C@H](O)[C@H]1OC(=O)C2=C1OCCCCO2 [synthesis example 17, 6-O-isostearoyl-2,3-O-(1,4-butanediyl) ascorbic acid] | + (<20%) | ++ (140%<) | ++ (120%<) | ○ (Total score of 10 panelists is 25 or more) | ○ (Total score of 10 panelists is 25 or more) | ○ (Total score of 10 panelists is 25 or more) | Δ | ⊚ (95% or more) | ⊚ (95% or more) | ⊚ (95% or more) | ⊚ (95% or more)
CCCCCCCC(=O)OCC(OC(=O)CCCCCCC)C1OC(=O)C2=C1OCCCO2 (stereo not drawn) [synthesis example 23, 5,6-O-dioctanoyl-2,3-O-(1,3-propanediyl) ascorbic acid] | + (<20%) | ++ (140%<) | + (100-120%) | ○ (Total score of 10 panelists is 25 or more) | ○ (Total score of 10 panelists is 25 or more) | ○ (Total score of 10 panelists is 25 or more) | Δ | ⊚ (95% or more) | ⊚ (95% or more) | ⊚ (95% or more) | ⊚ (95% or more)
CCCCCCCCCCCCCCCC(=O)OCC(O)C1OC(=O)C2=C1OCCCCO2 (stereo not drawn) [synthetic example 15, 6-O-palmitoyl-2,3-O-(1,4-butanediyl) ascorbic acid] | + (<20%) | ++ (140%<) | ++ (120%<) | ○ (Total score of 10 panelists is 25 or more) | ○ (Total score of 10 panelists is 25 or more) | ○ (Total score of 10 panelists is 25 or more) | Δ | ⊚ (95% or more) | ⊚ (95% or more) | ⊚ (95% or more) | ⊚ (95% or more)
